# In ChEMBL document CHEMBL4138146, “A Schmidt rearrangement-mediated synthesis of novel tetrahydro-benzo[1,4]diazepin-5-ones as potential anticancer and antiprotozoal agents” (Eur J Med Chem, 2017):
# Legend:
# Type in all cases: functional
# [1] = tested on: MCF7; test: Growth inhibition of human MCF7 cells incubated for 48 hrs by sulforhodamine B assay; settings: MCF7, 48 h
# [2] = tested on: TK-10; test: Growth inhibition of human TK10 cells incubated for 48 hrs by sulforhodamine B assay; settings: TK-10, 48 h
# [3] = tested on: SF-539; test: Growth inhibition of human SF539 cells incubated for 48 hrs by sulforhodamine B assay; settings: SF-539, 48 h
# [4] = tested on: HOP-62; test: Growth inhibition of human HOP62 cells incubated for 48 hrs by sulforhodamine B assay; settings: HOP-62, 48 h
# [5] = tested on: SNB-75; test: Growth inhibition of human SNB75 cells incubated for 48 hrs by sulforhodamine B assay; settings: SNB-75, 48 h; for CC50: read-out: LC50 (the source's name)
# [6] = tested on: NCI-H522; test: Growth inhibition of human NCI-H522 cells incubated for 48 hrs by sulforhodamine B assay; settings: NCI-H522, 48 h; for CC50: read-out: LC50 (the source's name)
# [7] = tested on: MDA-MB-435; test: Growth inhibition of human MDA-MB-435 cells incubated for 48 hrs by sulforhodamine B assay; settings: MDA-MB-435, 48 h
# [8] = tested on: NCI-H23; test: Growth inhibition of human NCI-H23 cells incubated for 48 hrs by sulforhodamine B assay; settings: NCI-H23, 48 h
# [9] = tested on: OVCAR-8; test: Growth inhibition of human OVCAR8 cells incubated for 48 hrs by sulforhodamine B assay; settings: OVCAR-8, 48 h
# [10] = tested on: SK-MEL-2; test: Growth inhibition of human SK-MEL-2 cells incubated for 48 hrs by sulforhodamine B assay; settings: SK-MEL-2, 48 h; for CC50: read-out: LC50 (the source's name)
# [11] = tested on: PC-3; test: Growth inhibition of human PC3 cells incubated for 48 hrs by sulforhodamine B assay; settings: PC-3, 48 h
# [12] = tested on: A498; test: Growth inhibition of human A498 cells incubated for 48 hrs by sulforhodamine B assay; settings: A498, 48 h; for CC50: read-out: LC50 (the source's name)
# [13] = tested on: Hs-578T; test: Growth inhibition of human Hs 578T cells incubated for 48 hrs by sulforhodamine B assay
# [14] = tested on: A549; test: Growth inhibition of human A549/ATCC cells incubated for 48 hrs by sulforhodamine B assay; settings: A549, 48 h
# [15] = tested on: COLO 205; test: Growth inhibition of human COLO205 cells incubated for 48 hrs by sulforhodamine B assay; settings: COLO 205, 48 h
# [16] = tested on: 786-0; test: Growth inhibition of human 786-0 cells incubated for 48 hrs by sulforhodamine B assay; settings: 786-0, 48 h
# [17] = tested on: UACC-257; test: Growth inhibition of human UACC257 cells incubated for 48 hrs by sulforhodamine B assay; settings: UACC-257, 48 h; for CC50: read-out: LC50 (the source's name)
# [18] = tested on: EKVX; test: Growth inhibition of human EKVX cells incubated for 48 hrs by sulforhodamine B assay
# [19] = tested on: LOX IMVI; test: Growth inhibition of human LOXIMVI cells incubated for 48 hrs by sulforhodamine B assay
# [20] = tested on: MCF7; test: Growth inhibition of human MCF7 cells assessed as cell growth at 10^-7 M incubated for 48 hrs by sulforhodamine B assay relative to control; settings: MCF7, 48 h, read-out: Activity
# [21] = tested on: EKVX; test: Growth inhibition of human EKVX cells assessed as cell growth at 10^-6 M incubated for 48 hrs by sulforhodamine B assay relative to control; settings: read-out: Activity
# [22] = tested on: SK-MEL-2; test: Growth inhibition of human SK-MEL-2 cells assessed as cell growth at 10^-6 M incubated for 48 hrs by sulforhodamine B assay relative to control; settings: SK-MEL-2, 48 h, read-out: Activity
# [23] = tested on: DU-145; test: Growth inhibition of human DU145 cells assessed as cell growth at 10^-8 M incubated for 48 hrs by sulforhodamine B assay relative to control; settings: DU-145, 48 h, read-out: Activity
# [24] = tested on: DU-145; test: Growth inhibition of human DU145 cells assessed as cell growth at 10^-6 M incubated for 48 hrs by sulforhodamine B assay relative to control; settings: DU-145, 48 h, read-out: Activity
# [25] = tested on: CAKI-1; test: Growth inhibition of human Caki1 cells assessed as cell growth at 10^-5 M incubated for 48 hrs by sulforhodamine B assay relative to control; settings: CAKI-1, 48 h, read-out: Activity
# [26] = tested on: SF-295; test: Growth inhibition of human SF295 cells assessed as cell growth at 10^-4 M incubated for 48 hrs by sulforhodamine B assay relative to control; settings: SF-295, 48 h, read-out: Activity
# [27] = tested on: SW-620; test: Growth inhibition of human SW620 cells assessed as cell growth at 10^-7 M incubated for 48 hrs by sulforhodamine B assay relative to control; settings: SW-620, 48 h, read-out: Activity
# [28] = tested on: OVCAR-8; test: Growth inhibition of human OVCAR8 cells assessed as cell growth at 10^-8 M incubated for 48 hrs by sulforhodamine B assay relative to control; settings: OVCAR-8, 48 h, read-out: Activity
# [29] = tested on: NCI-H322M; test: Growth inhibition of human NCI-H322M cells assessed as cell growth at 10^-8 M incubated for 48 hrs by sulforhodamine B assay relative to control; settings: read-out: Activity
# [30] = tested on: A498; test: Growth inhibition of human A498 cells assessed as cell growth at 10^-4 M incubated for 48 hrs by sulforhodamine B assay relative to control; settings: A498, 48 h, read-out: Activity
# [31] = tested on: DU-145; test: Growth inhibition of human DU145 cells assessed as cell growth at 10^-7 M incubated for 48 hrs by sulforhodamine B assay relative to control; settings: DU-145, 48 h, read-out: Activity
# [32] = tested on: DU-145; test: Growth inhibition of human DU145 cells assessed as cell growth at 10^-4 M incubated for 48 hrs by sulforhodamine B assay relative to control; settings: DU-145, 48 h, read-out: Activity
# [33] = tested on: 786-0; test: Growth inhibition of human 786-0 cells assessed as cell growth at 10^-7 M incubated for 48 hrs by sulforhodamine B assay relative to control; settings: 786-0, 48 h, read-out: Activity
# [34] = tested on: HCT-116; test: Growth inhibition of human HCT116 cells assessed as cell growth at 10^-5 M incubated for 48 hrs by sulforhodamine B assay relative to control; settings: HCT-116, 48 h, read-out: Activity
# [35] = tested on: NCI-H322M; test: Growth inhibition of human NCI-H322M cells assessed as cell growth at 10^-5 M incubated for 48 hrs by sulforhodamine B assay relative to control; settings: read-out: Activity
# [36] = tested on: SK-OV-3; test: Growth inhibition of human SKOV3 cells assessed as cell growth at 10^-6 M incubated for 48 hrs by sulforhodamine B assay relative to control; settings: SK-OV-3, 48 h, read-out: Activity
# [37] = read-out: LC50 (the source's name)
smiles,measurement,setting,value
COc1cccc2c1C(=O)c1c(O)c3c(c(O)c1C2=O)C[C@@](O)(C(=O)CO)C[C@@H]3O[C@H]1C[C@H](N)[C@H](O)[C@H](C)O1 [DOXORUBICIN],GI50,[1],0.04 µM
same,GI50,[2],0.38 µM
same,GI50,[3],0.12 µM
same,GI50,[4],0.07 µM
same,GI50,[5],0.07 µM
same,CC50,[5],3.3 µM
same,GI50,[6],0.03 µM
same,CC50,[6],2.8 µM
same,GI50,[7],0.25 µM
same,GI50,[8],0.15 µM
same,GI50,[9],0.1 µM
same,GI50,[10],0.21 µM
same,CC50,[10],15.9 µM
same,GI50,[11],0.32 µM
same,GI50,[12],0.1 µM
same,CC50,[12],1.9 µM
same,GI50,[13],0.33 µM
same,GI50,[14],0.06 µM
same,GI50,[15],0.18 µM
same,GI50,[16],0.13 µM
same,GI50,[17],0.12 µM
same,CC50,[17],0.74 µM
same,GI50,[18],0.41 µM
same,GI50,[19],0.07 µM
CCCCOc1nc2ccccc2cc1C1CNC(=O)c2ccccc2N1 (stereo not drawn),GI50,[1],1.73 µM
same,TGI,[1],16.1 µM
same,CC50,[1]; [37],> 100 µM
same,growth at 0.1 µM,[20],91%
same,GI50,[2],4.93 µM
same,TGI,[2],21.6 µM
same,CC50,[2]; [37],73.8 µM
same,GI50,[3],2.29 µM
same,TGI,[3],7.47 µM
same,CC50,[3]; [37],44.9 µM
same,GI50,[4],2.99 µM
same,LC50,[4],76.7 µM
same,TGI,[4],17.4 µM
same,growth at 1 µM,[21],89%
same,growth at 1 µM,[22],86%
same,growth at 0.01 µM,[23],101%
same,growth at 1 µM,[24],95%
same,GI50,[5],1.81 µM
same,TGI,[5],13.7 µM
same,CC50,[5],48.3 µM
same,growth at 10 µM,[25],25%
same,GI50,[6],2.39 µM
same,TGI,[6],25.8 µM
same,CC50,[6],> 100 µM
same,GI50,[7],0.34 µM
same,TGI,[7],1.33 µM
same,CC50,[7]; [37],7.6 µM
same,growth at 100 µM,[26],-69%
same,GI50,[8],5.16 µM
same,TGI,[8],36.8 µM
same,CC50,[8]; [37],> 100 µM
same,GI50,[9],3.45 µM
same,TGI,[9],16.1 µM
same,CC50,[9]; [37],> 100 µM
same,growth at 0.1 µM,[27],96%
same,growth at 0.01 µM,[28],100%
same,GI50,[10],4.79 µM
same,TGI,[10],48.5 µM
same,CC50,[10],> 100 µM
same,GI50,[11],3.06 µM
same,TGI,[11],13.4 µM
same,CC50,[11]; [37],66.9 µM
same,GI50,[12],0.39 µM
same,TGI,[12],4.7 µM
same,CC50,[12],> 100 µM
same,GI50,[13],3.21 µM
same,TGI,[13],33.8 µM
same,CC50,[13]; [37],> 100 µM
same,growth at 0.01 µM,[29],94%
same,growth at 100 µM,[30],-38%
same,GI50,[14],3.64 µM
same,LC50,[14],53 µM
same,TGI,[14],14.5 µM
same,GI50,[15],2.19 µM
same,TGI,[15],4.95 µM
same,CC50,[15]; [37],23 µM
same,GI50,[16],2.84 µM
same,TGI,[16],10.4 µM
same,CC50,[16]; [37],4.65 µM
same,growth at 0.1 µM,[31],101%
same,GI50,[17],8.16 µM
same,TGI,[17],> 100 µM
same,CC50,[17],> 100 µM
same,growth at 100 µM,[32],-43%
same,growth at 0.1 µM,[33],100%
same,GI50,[18],4.76 µM
same,TGI,[18],82.8 µM
same,CC50,[18]; [37],> 100 µM
same,GI50,[19],2.9 µM
same,TGI,[19],14.4 µM
same,CC50,[19]; [37],47.3 µM
same,growth at 10 µM,[34],-19%
same,growth at 10 µM,[35],31%
same,growth at 1 µM,[36],80%
